What was measured:
Beta-secretase 1 [1] = target: T1, Beta-secretase 1 (Homo sapiens, UniProt P56817); assay: Inhibition of BACE expressed in HEK293 cells; format: cell-based
Beta-secretase 1 [2] = target: T1, Beta-secretase 1; assay: Inhibition of BACE

T1 sequence (P56817 whole entry): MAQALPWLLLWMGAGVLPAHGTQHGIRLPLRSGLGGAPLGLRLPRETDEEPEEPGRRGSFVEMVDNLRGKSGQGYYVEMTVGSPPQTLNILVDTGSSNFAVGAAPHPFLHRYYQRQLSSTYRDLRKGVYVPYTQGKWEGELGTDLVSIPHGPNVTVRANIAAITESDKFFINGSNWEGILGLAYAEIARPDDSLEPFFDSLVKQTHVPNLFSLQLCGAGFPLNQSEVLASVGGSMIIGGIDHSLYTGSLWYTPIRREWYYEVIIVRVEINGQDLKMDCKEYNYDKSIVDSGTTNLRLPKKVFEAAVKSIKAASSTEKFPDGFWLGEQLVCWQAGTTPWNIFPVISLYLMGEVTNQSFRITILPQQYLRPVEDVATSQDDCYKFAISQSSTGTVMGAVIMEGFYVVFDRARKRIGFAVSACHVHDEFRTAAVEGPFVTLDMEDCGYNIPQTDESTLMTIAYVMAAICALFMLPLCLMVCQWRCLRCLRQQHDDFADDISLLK

`CCCC(CCC)S(=O)(=O)C[C@@H](NC(=O)c1cccc(Cl)c1)C(=O)N[C@@H](Cc1cc(F)cc(F)c1)[C@H](O)CNCc1cccc(CC)c1` gave an EC50 (Beta-secretase 1 [1]) of 48 nM and an IC50 (Beta-secretase 1 [2]) of 5 nM.

For `CCCCS(=O)(=O)C[C@@H](NC(=O)OCc1ccncc1)C(=O)N[C@@H](Cc1cc(F)cc(F)c1)[C@H](O)CNCc1cccc(CC)c1`, the EC50 (Beta-secretase 1 [1]) was 2 nM and the IC50 (Beta-secretase 1 [2]) was 11 nM.

For `CCCCS(=O)(=O)C[C@@H](NC(=O)c1ccncc1)C(=O)N[C@@H](Cc1cc(F)cc(F)c1)[C@H](O)CNCc1cccc(CC)c1`, the EC50 (Beta-secretase 1 [1]) was 1 nM and the IC50 (Beta-secretase 1 [2]) was 5 nM.

Work on `CCCCS(=O)(=O)C[C@@H](NC(=O)c1ncc[nH]1)C(=O)N[C@@H](Cc1cc(F)cc(F)c1)[C@H](O)CNCc1cccc(CC)c1` yielded an EC50 (Beta-secretase 1 [1]) of 4 nM and an IC50 (Beta-secretase 1 [2]) of 4 nM.

With `CCCC(CCC)S(=O)(=O)C[C@@H](NC(=O)c1ccccc1C)C(=O)N[C@@H](Cc1cc(F)cc(F)c1)[C@H](O)CNCc1cccc(CC)c1` the EC50 (Beta-secretase 1 [1]) was 59 nM and the IC50 (Beta-secretase 1 [2]) was 15 nM.

For `CCCC(CCC)S(=O)(=O)C[C@@H](NC(=O)c1cccnc1)C(=O)N[C@@H](Cc1cc(F)cc(F)c1)[C@H](O)CNCc1cccc(CC)c1`, the EC50 (Beta-secretase 1 [1]) was 1 nM and the IC50 (Beta-secretase 1 [2]) was 1 nM.

For `CCCCS(=O)(=O)C[C@@H](NC(=O)c1cnccn1)C(=O)N[C@@H](Cc1cc(F)cc(F)c1)[C@H](O)CNCc1cccc(CC)c1`, the EC50 (Beta-secretase 1 [1]) was 0.2 nM and the IC50 (Beta-secretase 1 [2]) was 4 nM.

With `CCCCS(=O)(=O)C[C@@H](NC(=O)SC1CCOC1)C(=O)N[C@@H](Cc1cc(F)cc(F)c1)[C@H](O)CNCc1cccc(CC)c1` (some centres undefined) the EC50 (Beta-secretase 1 [1]) was 4 nM and the IC50 (Beta-secretase 1 [2]) was 15 nM.

For `CCCC(CCC)S(=O)(=O)C[C@@H](NC(=O)c1cccc(O)c1)C(=O)N[C@@H](Cc1cc(F)cc(F)c1)[C@H](O)CNCc1cccc(CC)c1`, the EC50 (Beta-secretase 1 [1]) was 9 nM and the IC50 (Beta-secretase 1 [2]) was 2 nM.

`CCCCS(=O)(=O)C[C@@H](NC(=O)OCc1cccnc1)C(=O)N[C@@H](Cc1cc(F)cc(F)c1)[C@H](O)CNCc1cccc(CC)c1` gave an EC50 (Beta-secretase 1 [1]) of 0.6 nM and an IC50 (Beta-secretase 1 [2]) of 10 nM.

With `CCCC(CCC)S(=O)(=O)C[C@@H](NC(=O)c1ccc(C)cc1)C(=O)N[C@@H](Cc1cc(F)cc(F)c1)[C@H](O)CNCc1cccc(CC)c1` the EC50 (Beta-secretase 1 [1]) was 19 nM and the IC50 (Beta-secretase 1 [2]) was 4 nM.

`CCCCS(=O)(=O)C[C@@H](NC(=O)c1cc(C)n[nH]1)C(=O)N[C@@H](Cc1cc(F)cc(F)c1)[C@H](O)CNCc1cccc(CC)c1` showed an EC50 (Beta-secretase 1 [1]) of 4 nM and an IC50 (Beta-secretase 1 [2]) of 4 nM.

`CCCCS(=O)(=O)C[C@@H](NC(=O)C1CC1)C(=O)N[C@@H](Cc1cc(F)cc(F)c1)[C@H](O)CNCc1cccc(CC)c1` showed an EC50 (Beta-secretase 1 [1]) of 4 nM and an IC50 (Beta-secretase 1 [2]) of 10 nM.

In the case of `CCCC(CCC)S(=O)(=O)C[C@@H](NC(=O)OCc1ccncc1)C(=O)N[C@@H](Cc1cc(F)cc(F)c1)[C@H](O)CNCc1cccc(CC)c1`, the EC50 (Beta-secretase 1 [1]) is reported as 5 nM and the IC50 (Beta-secretase 1 [2]) is reported as 3 nM.

With `CCCCS(=O)(=O)C[C@@H](NC(=O)COC)C(=O)N[C@@H](Cc1cc(F)cc(F)c1)[C@H](O)CNCc1cccc(CC)c1` the EC50 (Beta-secretase 1 [1]) was 4 nM and the IC50 (Beta-secretase 1 [2]) was 22 nM.

Compound `CCCCS(=O)(=O)C[C@@H](NC(C)=O)C(=O)N[C@@H](Cc1cc(F)cc(F)c1)[C@H](O)CNCc1cccc(CC)c1` has an EC50 (Beta-secretase 1 [1]) of 6 nM and an IC50 (Beta-secretase 1 [2]) of 13 nM.

`CCCC(CCC)S(=O)(=O)C[C@@H](NC(=O)c1ccccc1)C(=O)N[C@@H](Cc1cc(F)cc(F)c1)[C@H](O)CNCc1cccc(CC)c1` showed an EC50 (Beta-secretase 1 [1]) of 14 nM and an IC50 (Beta-secretase 1 [2]) of 495 nM.

`CCCC(CCC)S(=O)(=O)C[C@@H](NC(=O)OCc1cccnc1)C(=O)N[C@@H](Cc1cc(F)cc(F)c1)[C@H](O)CNCc1cccc(CC)c1` showed an EC50 (Beta-secretase 1 [1]) of 5 nM and an IC50 (Beta-secretase 1 [2]) of 4 nM.

Compound `CCCCS(=O)(=O)C[C@@H](NC(=O)c1cnccc1O)C(=O)N[C@@H](Cc1cc(F)cc(F)c1)[C@H](O)CNCc1cccc(CC)c1` has an EC50 (Beta-secretase 1 [1]) of 24 nM and an IC50 (Beta-secretase 1 [2]) of 5 nM.

Compound `CCCC(CCC)S(=O)(=O)C[C@@H](NC(=O)c1ccc(OC)cc1)C(=O)N[C@@H](Cc1cc(F)cc(F)c1)[C@H](O)CNCc1cccc(CC)c1` has an EC50 (Beta-secretase 1 [1]) of 11 nM and an IC50 (Beta-secretase 1 [2]) of 2 nM.

Work on `CCCCS(=O)(=O)C[C@@H](NC(=O)c1cccnc1)C(=O)N[C@@H](Cc1cc(F)cc(F)c1)[C@H](O)CNCc1cccc(CC)c1` yielded an EC50 (Beta-secretase 1 [1]) of 1 nM and an IC50 (Beta-secretase 1 [2]) of 2 nM.

With `CCCCS(=O)(=O)CC(NC(=O)OCCC#N)C(=O)N[C@@H](Cc1cc(F)cc(F)c1)[C@H](O)CNCc1cccc(CC)c1` (some centres undefined) the EC50 (Beta-secretase 1 [1]) was 5 nM and the IC50 (Beta-secretase 1 [2]) was 8 nM.

Work on `CCCC(CCC)S(=O)(=O)C[C@@H](NC(=O)OCc1ccccc1)C(=O)N[C@@H](Cc1cc(F)cc(F)c1)[C@H](O)CNCc1cccc(CC)c1` yielded an IC50 (Beta-secretase 1 [2]) of 3 nM.

`CCCC(CCC)S(=O)(=O)C[C@@H](NC(=O)OC)C(=O)N[C@@H](Cc1cc(F)cc(F)c1)[C@H](O)CNCc1cccc(CC)c1` gave an EC50 (Beta-secretase 1 [1]) of 2 nM and an IC50 (Beta-secretase 1 [2]) of 3 nM.

In the case of `CCCCS(=O)(=O)C[C@@H](NC(=O)OCC(F)(F)F)C(=O)N[C@@H](Cc1cc(F)cc(F)c1)[C@H](O)CNCc1cccc(CC)c1`, the IC50 (Beta-secretase 1 [2]) is reported as 4 nM.

`CCCC(CCC)S(=O)(=O)C[C@@H](NC(=O)c1ccc(C(F)(F)F)cc1)C(=O)N[C@@H](Cc1cc(F)cc(F)c1)[C@H](O)CNCc1cccc(CC)c1` gave an EC50 (Beta-secretase 1 [1]) of 76 nM and an IC50 (Beta-secretase 1 [2]) of 53 nM.

Work on `CCCCS(=O)(=O)C[C@@H](NC(=O)OC)C(=O)N[C@@H](Cc1cc(F)cc(F)c1)[C@H](O)CNCc1cccc(CC)c1` yielded an EC50 (Beta-secretase 1 [1]) of 2 nM and an IC50 (Beta-secretase 1 [2]) of 4 nM.

`CCCCS(=O)(=O)C[C@@H](NC(=O)OCCNC(C)=O)C(=O)N[C@@H](Cc1cc(F)cc(F)c1)[C@H](O)CNCc1cccc(CC)c1` showed an EC50 (Beta-secretase 1 [1]) of 12 nM and an IC50 (Beta-secretase 1 [2]) of 27 nM.

Source: ChEMBL document CHEMBL1146261, “Design of potent inhibitors of human beta-secretase. Part 2” (Bioorg Med Chem Lett, 2007)
